Legend:
LNCaP95 = test: MTT cell viability, 7 days; assay type: cell-based; details: LNCaP-95, 168 h
Description: (§1) Cells were seeded in 96-well plates and treated with drugs the next day. After 7 days, viability was assessed using MTT assay.
(§2) (C) Western blot analysis of AR and AR-V7 in C4-2B and C4-2B/MDVR cells after 48-hour ITRI-148 treatment. […] DEGs were determined relative to DMSO or pLKO.1 vector control. […] RPL13A was used for normalization. […] AR, AR-V7, and PSA expression in the drug-treated cells were detected across treatment timepoints.

CWR22Rv1 = test: MTT cell viability, 7 days; assay type: cell-based; details: 168 h
Description: as §1, §2

C4-2B/MDVR = test: MTT cell viability, 7 days; assay type: cell-based; details: 168 h
Description: as §1, §2

LNCaP = test: MTT cell viability, 7 days; assay type: cell-based; details: Homo sapiens, 168 h
Description: as §1, §2

PNT2 = test: MTT cell viability, 7 days; assay type: cell-based
Description: as §1, §2

PC3 = test: MTT cell viability, 7 days; assay type: cell-based
Description: as §1, §2

VCaP = test: MTT cell viability, 7 days; assay type: cell-based; details: Homo sapiens, 168 h
Description: as §1, §2

[1] = In vitro stability in plasma; assay type: in vitro ADME, mouse; details: mice plasma
Description: The stability of ITRI-148 was assessed in plasma across four species: humans, dogs, rats, and mice. ITRI-148 added to pre-warmed plasma at 1 μM was maintained at the designated temperature, and aliquots were collected at 0, 0.5, 1, 2, and 4 hours after incubation. At each time point, 20 μL of the samples was taken to terminate the reaction, followed by LC-MS/MS analysis to determine the remaining compound concentration. Data from duplicated experiments was calculated and presented as mean ± SD.

VCaP xenografts = test: Castrated VCaP xenograft study; assay type: in vivo; details: for tumor growth inhibition (TGI): castrated mice
Source text: Immunodifficient male CB-17 SCID mice (CB17/Icr-Prkdc^scid/IcrIcoCrlBltw) and NOD SCID mice (NOD.CB17-Prkdc^scid/NCrCrlBltw) mice at four to six weeks of age were purchased from BioLASCO Taiwan Co., Ilan, Taiwan. All mice were housed in conventional cages in the AAALAC Full Accreditation (2011) in Industrial Technology Research Institute and were allowed to acclimatize and recover from shipping-related stress for one week prior to the study. The health of the mice was monitored by daily observations. Animals were kept in rooms at temperature of 22–26°C with 40–70 % humidity, positive pressure, 60 % air recirculation, ventilation rate 15–20 changes per hour, and a controlled light-dark cycle (12–12 hours). The order and location of each animal cage was randomly assigned to minimize potential confounders. CWR22Rv1 cells (5 × 10^6) were suspended in 100 μL of PBS with 30 % Matrigel and subcutaneously implanted into the right flank of male CB-17 SCID mice. Tumors were measured with calipers, and tumor size was calculated as follows: tumor volume (V) = (L × S^2)/2 (L, longest diameter, mm; S, shortest diameter, mm). When mean tumor volume reached 150–200 mm^3, the mice were randomly assigned into indicated groups (n = 5-6/ group) and the day of initiating treatments was assigned as day 0. VCaP cells (5 × 10⁶) suspended in 50 % Matrigel were subcutaneously implanted into male NOD SCID mice. Once tumors reached approximately 250 mm³, castration surgery was performed. After tumor regression and subsequent regrowth to around 250 mm³, treatment with ITRI-148 was initiated. Oral (PO) gavage was used for the drug administration, including vehicle control and ITRI-148 treatments (7.5 mg/kg, 15 mg/kg, 30 mg/kg, or 60 mg/kg, BID). Tumor size and body weight of the animals were monitored and recorded two to three times per week. Mice were sacrificed when one of the tumor reached over 1000 mm^3 in size. Tumors were collected and immediately subjected to liquid nitrogen freezing and homogenization. The homogenized tumor samples were stored at −80°C for subsequent western blotting analysis. The drug antitumor efficacy was presented as percentages of TGI of each tested animal, calculated as follows: [1 − (final tumor volume ^treated group – initial tumor volume ^treated group) / (final tumor volume ^vehicle group – initial tumor volume ^vehicle group)] × 100. Body weight of each mouse was also compared to that on the first day of treatment (day 0) and expressed as a percentage of day 0 value. All data points were included for calculation and the values are presented as mean ± SEM. Statistical analysis of the differences between two drug and vehicle treated groups was determined by two-tailed Student’s t-test.

O=C1CCC(N2C(=O)c3cccc(NCC(=O)N4CCC(N5CCC(C#Cc6ccc(C7CCN(C8=Nn9c(nnc9C(F)(F)F)CC8)CC7)cc6)CC5)CC4)c3C2=O)C(=O)N1 (stereo not drawn) [ITRI-148]
IC50 (LNCaP95): 1960 nM | IC50 (CWR22Rv1): 2150 nM | IC50 (C4-2B/MDVR): 1600 nM | IC50 (LNCaP): 170 nM | IC50 (PNT2; Homo sapiens, PNT2, MTT): > 10000 nM | sensitivity of cell viability (PNT2; normal prostate epithelial cells (PNT2)): insensitive | sensitivity of cell viability (PC3; AR-negative CRPC cells (PC3)): insensitive | IC50 (PC3; Homo sapiens, PC-3, PC3, MTT): > 10000 nM | IC50 (VCaP): 890 nM | Remaining of intact drug (%) ([1]; 1 μM, incubation up to 4 hours): 80.2 ± 0.3% | half-life at 1 μM ([1]; mouse, read-out: Plasma Stability t1/2): > 4 h | toxicity reflected by weight-loss of the animals (VCaP xenografts; PO 7.5-30 mg/kg BID): No toxicity reflected by weight-loss of the animals was observed | tumor growth inhibition (TGI) (VCaP xenografts; PO 7.5 mg/kg BID): 49.06% | tumor growth inhibition (TGI) (VCaP xenografts; PO 15 mg/kg BID): 95.08% | tumor growth inhibition (TGI) (VCaP xenografts; PO 30 mg/kg BID, average): 147.07%

From PMC12661400, “Oral bioavailable ITRI-148 degrades androgen receptor variants and overcomes antiandrogen resistance in advanced prostate cancer” (Neoplasia (New York, N.Y.), 2025)
